Assay results: patent EP1166781A1, “PROTEASOME INHIBITORS” (KYOWA HAKKO KOGYO CO., LTD., priority 1999, dated 2000)
Read-outs that look alike come from different tables or passages of the source.

Legend:
[1] = test system: human colon cancer cell line, WiDr transplanted in nude mice; assay: Antitumor activity for WiDr transplanted in nude mice; format: in vivo, BALB/c-nu/nu mouse; conditions: intraperitoneally for 5 consecutive days, 7 days, WiDr solid tumor in mice
Method: Compound 4 was dissolved in ethanol and then prepared at the fixed concentrations by adding cremophor EL (supplied by SIGMA) and saline. At this time, final concentrations of ethanol, cremophor EL, and saline are 5%, 7.5% and 87.5%, respectively. 2 mm x 2 mm of the tumor piece of human colon cancer cell line, WiDr was subcutaneously transplanted in the ventral site of a BALB/c-nu/nu mouse. At the time when a tumor volume [a major axis (a), a minor axis (b): ab^2/2] attained to 25-60 mm^3, the test compound prepared was intraperitoneally administered for 5 consecutive days to five mice as one proup.
For evaluating antitumor activity of the compound, the tumor volume was measured everyday, and the ratio of the volume (V) on the day of each measurement to the volume (V0) on the day when the administration of the compound was started was obtained to calculate T/C(%).

proteasome = molecular target: T1, proteasome (Homo sapiens, UniProt P28074); assay: Proteasome inhibitory activity (Suc-Leu-Leu-Val-Tyr-AMC cleavage, crude enzyme solution from HeLa S3 cell extract); format: biochemical
T1 construct: The obtained high molecular fraction (molecular weight >500K) was used as an enzyme solution for the detection of proteasome activity; endogenous in cells; host or cells: HeLa S3 cells: homogenate, 100,000G supernatant, >500K fraction from Centricon-500
Method: 1 x 10^9 of HeLa S3 cells were dispersed in 5 ml of the buffer A [20 mmol/L of Tris (pH 7.5), 2 mmol/L of ATP, 5 mmol/L of MgCl2, 1 mmol/L of dithiothreitol (DTT)], and then homogenized at 4°C. The supernatant centrifuged at 100,000G was concentrated by a Centricon-500 (supplied by Amicon) and diluted with 2.5 ml of the buffer B [25 mmol/L of Tris/HCl (pH 7.5), 2 mmol/L of ATP, 1 mmol/L of DTT, 20% of glycerol]. The obtained high molecular fraction (molecular weight >500K) was used as an enzyme solution for the detection of proteasome activity. Suc-Leu-Leu-Val-Tyr-AMC [Suc: Succinyl; AMC: Aminomethylcoumarin](supplied by Peptide Institute, Inc.) was used as a substrate for measuring inhibitory activity for proteasome (stored as a 2 mmol/L DMSO solution). The reaction was carried out by the following method using 96-well microtiter plates. To 96 µl of a reaction buffer [20 mmol/L of Tris/HCl (pH 8), 0.5 mmol/L of EDTA, 0.04% of sodium dodecylsulfate (SDS)] were added 1 µl of a drug solution (DMSO) and 2 µl of an enzyme solution followed by adding 1 µl of a substrate solution thereto, and then the mixture was incubated at 37°C for one hour. […]

[2] = test system: Human colon cancer, WiDr cells; assay: Antiproliferative activity in WiDr cells (MTT, 72 hours); format: cell-based
Method: Human colon cancer, WiDr cells suspended in MEM media containing 10% of fetal calf serum were seeded in 96-well microtiter plates at 2 x 10^3cells/well, and precultured in an incubator with 5% of CO2 at 37°C for 24 hours. Then, each compound diluted appropriately with the media was added into the well at 50 µl/well. At this time, a final concentration of each compound is up to 100 µmol/l or 1 µmol/l. The cells were cultured in the incubator with 5% of CO2 at 37°C for additional 72 hours. At 5 hours before the culturing was terminated, MTT [3-(4,5-dimethylthiazol-2-yl)-2,5-[…] bromide] dissolved in the medium at a final concentration of 1 mg/mL was added into the well at 50 µl/well. After the culturing, dimethyl sulfoxide was added to the well at 150 µl/well, and the plate was vigorously stirred using a plate mixer to dissolve crystals of MTT-formazan completely. […]

[3] = crude proteasome fraction (>500K) from HeLa S3 cells, substrate Suc-Leu-Leu-Val-Tyr-AMC, 37°C for one hour, read-out: IC50

`CCC(C)C1C(=O)OC1C(=O)NC1CC1CC(NC(=O)C(C)N)C(=O)OCc1ccccc1` (centres unmarked) [Compound 4] gave a T/C ([1]; Dose 5.0 mg/kg/day) of 56%, a T/C ([1]; Dose 10.0 mg/kg/day) of 49% and an IC50 (proteasome; [3]) of 30 nM. It also gave an IC50 [2] of 50 nM.
`CCCCNC(=O)C(CC1CC1NC(=O)C1OC(=O)C1C(C)CC)NC(=O)C(C)NC(=O)OC(C)(C)C` (centres unmarked) [Compound 24] gave an IC50 (proteasome) of 15 nM and an IC50 [2] of 20 nM.
`CCC(C)C1C(=O)OC1C(=O)NC1CC1CC(NC(=O)C(C)NC(=O)NC(C)C)C(=O)OCc1ccccc1` (centres unmarked) [Compound 31] was tested, and the IC50 (proteasome; [3]) was 11 nM and the IC50 [2] was 113 nM.
`CCC(C)C1C(=O)OC1C(=O)NC1CC1CC(NC(=O)C(C)NP(=O)(c1ccccc1)c1ccccc1)C(=O)OCc1ccccc1` (centres unmarked) [Compound 41] gave an IC50 (proteasome; [3]) of 12 nM and an IC50 [2] of 2400 nM.
Compound `CC(C)C[C@@H]1C(=O)O[C@H]1C(=O)NCCCC[C@H](NC(=O)[C@H](C)N)C(=O)OCc1ccccc1` [Compound 50] has an IC50 (proteasome; [3]) of 30 nM and an IC50 [2] of 1800 nM.
In the case of `CCC(C)C1C(=O)OC1C(=O)NC1CC1CC(NC(=O)C(C)NC(=O)OC(C)(C)C)C(=O)OCC1CCCCC1` (centres unmarked) [Compound 14], the IC50 (proteasome; crude proteasome fraction (>500K) from HeLa S3 cells, substrate Suc-Leu-Leu-Val-Tyr-AMC, 37°C for one hour) is reported as 18 nM and the IC50 [2] is reported as 300 nM.
`CCC(C)C1C(=O)OC1C(=O)NC1CC1CC(NC(=O)C(C)NC(=O)OC(C)(C)C)C(=O)OCCO` (centres unmarked) [Compound 16] showed an IC50 (proteasome; [3]) of 52 nM and an IC50 [2] of 950 nM.
Compound `CCC(C)C1C(=O)OC1C(=O)NC1CC1CC(NC(=O)C(C)NC(=S)NCc1ccccc1)C(=O)OCc1ccccc1` (centres unmarked) [Compound 32] has an IC50 (proteasome; [3]) of 5 nM and an IC50 [2] of 433 nM.
Work on `CCC(C)C1C(=O)OC1C(=O)NC1CC1CC(NC(=O)C(C)NC(=O)OC(C)(C)C)C(=O)OCC[Si](C)(C)C` (centres unmarked) [Compound 15] yielded an IC50 (proteasome) of 18 nM and an IC50 [2] of 200 nM.
Compound `CCC(C)C1C(=O)OC1C(=O)NC1CC1CC(NC(=O)C(C)NC(=O)OC(C)(C)C)C(=O)NCc1ccccc1` (centres unmarked) [Compound 19] has an IC50 (proteasome; [3]) of 6.2 nM and an IC50 [2] of 190 nM.
In the case of `CCC(C)C1C(=O)OC1C(=O)NC1CC1CC(NC(=O)C(C)NC(=O)OC(C)(C)C)C(=O)OCc1ccc2ccccc2c1` (centres unmarked) [Compound 5], the IC50 (proteasome; [3]) is reported as 6.2 nM and the IC50 [2] is reported as 30 nM.
`CCC(C)C1C(=O)OC1C(=O)NC1CC1CC(NC(=O)C(C)NC(=O)OC(C)(C)C)C(=O)OCC(=O)c1ccccc1` (centres unmarked) [Compound 18] was tested, and the IC50 (proteasome; [3]) was 12 nM and the IC50 [2] was 200 nM.
